Patent US20260306640A1, “TECHNOLOGIES TARGETING CELL STATES” (Auron Therapeutics, Inc., priority 2023, published 2026)

Assays:
[1] = system: histone acetylation (e.g., AcH3K9); assay: Histone H3K9 acetylation (AcH3K9), Western Blot, NCI-H1048 cells; type: cell-based, human; conditions: FIG. 1
Method: In some embodiments, an assessment is performed using cells. In some embodiments, cells were treated with various compounds before assessing KAT2A and/or KAT2B levels, histone (e.g., H3K9) acetylation levels, cell states, growth, etc.
Western Blot: In some assessments, MOLM13, NCI-H1048, LASCPC-01 and NEPC organoid cells were treated with compounds at certain concentrations for certain periods of time, and cell pellets were lysed by adding 1-part 4×laemmli Sample buffer (e.g., Bio-Rad Catalog #1610747) along with Mercaptoethanol (e.g., Bio-Rad Catalog #1610710) according to manufacturer's instructions, and 1-part RIPA buffer with 2×protease and phosphatase inhibitor. The samples were sonicated 30% amplitude, 35 seconds on and 35 seconds off for 1 cycle and boiled at 95° C. for 5 minutes. 30-35 μL of samples were loaded on a 4-15% Criterion™ TGX Stain-Free™ Protein Gel (Bio-rad, 5678084). In some assessments, NCI-H1048 flash frozen tumor pieces were resuspended in RIPA buffer and homogenized on TissueLyser II with steel beads at 30 Hz for 3 minutes. Samples were then centrifuged at […] at 4° C. for 15 minutes. BCA protein determination was performed and samples normalized for 1.95 ug/uL. 19.5 uL were loaded and run on similar gels as cell pellets. […]

KAT2A [2] = biological target: T1, KAT2A (Homo sapiens, UniProt Q92830); assay: Western blot of KAT2A level in acute myeloid leukemia MOLM-13 cells, 48 h; type: cell-based; parameters: degrader, Western blot; conditions: FIG. 2 (A)
T1 sequence (Q92830 whole entry): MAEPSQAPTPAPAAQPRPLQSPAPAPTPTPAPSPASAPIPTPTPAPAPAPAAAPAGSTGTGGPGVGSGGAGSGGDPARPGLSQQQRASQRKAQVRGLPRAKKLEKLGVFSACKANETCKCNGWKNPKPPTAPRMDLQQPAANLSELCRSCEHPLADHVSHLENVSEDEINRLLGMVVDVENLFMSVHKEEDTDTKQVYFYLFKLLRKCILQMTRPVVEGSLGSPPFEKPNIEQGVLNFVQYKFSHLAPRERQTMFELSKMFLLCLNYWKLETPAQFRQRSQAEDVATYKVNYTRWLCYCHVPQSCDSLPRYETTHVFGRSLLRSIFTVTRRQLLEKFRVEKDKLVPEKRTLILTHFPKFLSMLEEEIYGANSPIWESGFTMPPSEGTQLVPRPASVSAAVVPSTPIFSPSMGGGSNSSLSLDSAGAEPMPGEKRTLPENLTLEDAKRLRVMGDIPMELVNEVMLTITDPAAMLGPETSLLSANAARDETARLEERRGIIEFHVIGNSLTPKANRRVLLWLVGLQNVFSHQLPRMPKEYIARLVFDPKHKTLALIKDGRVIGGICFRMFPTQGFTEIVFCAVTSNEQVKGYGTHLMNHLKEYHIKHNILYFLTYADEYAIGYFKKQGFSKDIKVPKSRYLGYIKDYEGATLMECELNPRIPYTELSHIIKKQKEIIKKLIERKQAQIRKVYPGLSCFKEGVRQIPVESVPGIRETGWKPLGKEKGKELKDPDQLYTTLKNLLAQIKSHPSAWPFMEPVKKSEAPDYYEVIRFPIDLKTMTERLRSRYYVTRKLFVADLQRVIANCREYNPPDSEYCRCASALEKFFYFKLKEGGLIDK
Method: FIG. 2. Provided compounds can provide various activities. (A): Provided technologies can reduce KAT2A and KAT2B levels and histone acetylation levels. […] Cell count data after 8 days of treatment with compound 22 relative to DMSO control are presented as examples to confirm inhibition. […] (C): Provided technologies can modulate cell states and induce differentiation. […] EC50=0.3 nM.

KAT2B = KAT2B (Homo sapiens, UniProt Q92831); assay: Western blot of KAT2B level in NEPC primary patient organoid, 72 hours; type: cell-based; parameters: degrader, Western blot; conditions: FIG. 3 (D)
Chain of KAT2B (Q92831 whole entry): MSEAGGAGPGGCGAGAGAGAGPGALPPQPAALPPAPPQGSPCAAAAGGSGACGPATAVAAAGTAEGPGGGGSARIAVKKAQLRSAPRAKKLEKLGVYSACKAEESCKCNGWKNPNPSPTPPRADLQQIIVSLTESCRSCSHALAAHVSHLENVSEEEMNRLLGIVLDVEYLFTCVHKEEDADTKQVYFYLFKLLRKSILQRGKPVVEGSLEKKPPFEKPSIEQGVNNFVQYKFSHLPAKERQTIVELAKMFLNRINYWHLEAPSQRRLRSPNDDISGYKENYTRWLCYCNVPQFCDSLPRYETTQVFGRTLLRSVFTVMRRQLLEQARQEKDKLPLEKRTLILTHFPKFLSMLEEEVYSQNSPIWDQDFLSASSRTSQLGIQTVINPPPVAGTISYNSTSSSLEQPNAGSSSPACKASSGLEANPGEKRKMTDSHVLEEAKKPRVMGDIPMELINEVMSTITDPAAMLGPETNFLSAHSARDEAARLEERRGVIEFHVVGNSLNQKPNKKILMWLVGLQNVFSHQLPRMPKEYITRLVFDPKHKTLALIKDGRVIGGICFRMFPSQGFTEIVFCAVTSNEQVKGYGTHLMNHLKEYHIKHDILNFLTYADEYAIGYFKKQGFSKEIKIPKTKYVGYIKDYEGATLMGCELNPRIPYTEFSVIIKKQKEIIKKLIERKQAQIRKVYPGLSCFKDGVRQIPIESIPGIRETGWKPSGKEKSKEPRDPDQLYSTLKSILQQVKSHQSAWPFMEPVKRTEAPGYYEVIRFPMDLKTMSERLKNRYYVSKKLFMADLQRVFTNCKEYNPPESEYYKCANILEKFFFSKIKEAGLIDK
Method: FIG. 3. Provided compounds can provide various activities. (A): Provided technologies can reduce KAT2A and KAT2B levels and histone acetylation levels. […] Cell viability (Cell Titer Glo) data relative to DMSO control after 7 days of treatment with compound 22 are presented as examples to confirm inhibition. GI50=5 nM. (C): Provided technologies can modulate cell states and induce differentiation. […] (D): Provided technologies can reduce KAT2A and KAT2B levels and histone acetylation levels including in neuroendocrine prostate cancer primary patient organoid. […] Concentrations are nM. […] Cell viability data relative to DMSO control after 21 days of treatment with compound 22 are presented as examples to confirm inhibition. GI50=3 nM. (F): Provided technologies can modulate cell states and induce differentiation.

KAT2A [3] = biological target: T1, KAT2A; assay: KAT2A reduction in LASCPC-01 cells; type: cell-based; parameters: degrader, Western blot
Method: MOLM-13 cells or NCI-H1048 cells were washed with PBS, then lysed with RIPA buffer containing 1×protease and phosphatase inhibitors (SantaCruz Biotechnologies Cat #sc-24948A). Protein was isolated by centrifugation at 12,000×g for 10 minutes at 4° C. and supernatant was collected. Protein was quantified via Bradford assay. Samples were diluted to 4 μg lysate in 16 μL RIPA buffer and then 4 μL of Jess Sample Buffer. Samples were heated at 95° C. for 5 minutes. Samples were loaded onto 12-230 kDa Jess™ Separation Module, 8×25 capillary cartridges (SM-W004, Biotechne). Antibodies loaded were: Primary antibody for KAT2A (GCN5L2 (C26A10) Rabbit mAb (3305, CST)) and for KAT2B (PCAF (C14G9)) Rabbit mAb (3378, CST) at 1:1000 and Anti-Rabbit Detection Module for Jess™ (Cat No #DM-001, Biotechne). Signal was detected by chemiluminescence.
In some embodiments, assessment was performed in LASCPC-01 cells, and reduction of KAT2A and KAT2B levels, including in some cases selectivity for one over the other, was confirmed. In some embodiments, DC50 and/or DC90 were assessed. In some embodiments, DC50 for various compounds was about or no more than about 1 nM. In some embodiments, DC90 for various compounds was about or no more than about 1 nM. In some embodiments, selectivity for the same polypeptide by a compound was observed across multiple types of cells (e.g., when assessed using DC50 and/or DC90). In some embodiments, certain compounds can provide improved properties and/or activities (e.g., potency). Data from certain assessments for certain compounds are presented below as examples (NT: not tested). It has been confirmed that various compounds described herein, including multiple compounds in Table 1, can be deemed to provide further improved properties and/or activities compared to the compound(s) in the table below for certain contexts, aspects, and/or uses.

SMILES: CN1C[C@H](Nc2cnn(C)c(=O)c2Br)C[C@H](c2ccc(C(=O)N3CCC(CN4CCN(c5ccc6c(c5)CN(C5CCC(=O)NC5=O)C6=O)CC4)CC3)cc2)C1 (stereo partly drawn) [Compound 22, 3-(5-(4-((1-(4-((3R,5R)-5-((5-bromo-1-methyl-6-oxo-1,6-dihydropyridazin-4-yl)amino)-1-methylpiperidin-3-yl)benzoyl)piperidin-4-yl)methyl)piperazin-1-yl)-1-oxoisoindolin-2-yl)piperidine-2,6-dione]
- histone acetylation (e.g., AcH3K9) levels [1]: reduce histone acetylation (e.g., AcH3K9) levels
- reduction of KAT2A level (KAT2A [2]): confirm such reduction
- reduction of KAT2B level (KAT2B): confirmed such reductions
- DC50 (KAT2A [3]; LASCPC-01, KAT2A): 0.06 nM
- EC90 (KAT2A [3]; LASCPC-01, KAT2A, read-out: DC90 (the source's name)): 0.67 nM
- KAT2A levels (KAT2A [3]; LASCPC-01 cells, FIG. 3): potently reduce KAT2A and KAT2B levels
